One may read the Ki as a dissociation constant, usually derived from enzyme kinetics or from competition with a known ligand. A lower Ki goes with higher affinity.

Assay [1] addresses T1, human glucagon receptor (Homo sapiens (Human), UniProt P47871). Kind of assay: Glucagon cAMP Assay (Cisbio cAMP detection). In kind it is cell-based. Particulars: CHOK1 cells stably transfected with the human glucagon receptor; block of glucagon induced cAMP production; Kb by modified Cheng-Prusoff equation. (Cyclic AMP is a second messenger, typically raised through Gs and lowered through Gi signalling.)

Assay [2] concerns the target T1, human glucagon receptor. The assay is described as follows: Human Glucagon SPA Assay (binding of [125I]Glucagon-Cex). Particulars: membrane from chem-1 cells stably transfected with the human glucagon receptor, Ki by Cheng-Prusoff equation. The method, then: The Glucagon SPA assay is used to determine the ability of test compounds to block the binding of glucagon-cex to the glucagon receptor. Test compounds are re-suspended and serially diluted in 100% DMSO. 1 μl of test compound at the desired concentrations is spotted into the appropriate wells of 96 well low binding white clear bottom plate (Corning). 1 μl of DMSO is spotted into total binding wells. 1 μl of a known glucagon antagonist at a concentration of 20 μM is added to non specific binding wells. […] All assay ingredients with the exception of test compounds are re-suspended in the following buffer; 50 mM Hepes pH 7.4; 5 mM MgCl2; 1 mM CaCl; 5% glycerol and 0.2% BSA. Following a 6-10 hr incubation at room temperature the amount of hot ligand bound to the cell membranes is determined by reading the plates on a Wallac Trilux radioactive emission detector. Data is analyzed using Pfizer's Data analysis program. IC50 values are then determined from the generated sigmoidal dose response curves. Ki values are calculated using Cheng-Prusoff equation. N is the number of times the compound was assayed.

T1 sequence (P47871 26-477): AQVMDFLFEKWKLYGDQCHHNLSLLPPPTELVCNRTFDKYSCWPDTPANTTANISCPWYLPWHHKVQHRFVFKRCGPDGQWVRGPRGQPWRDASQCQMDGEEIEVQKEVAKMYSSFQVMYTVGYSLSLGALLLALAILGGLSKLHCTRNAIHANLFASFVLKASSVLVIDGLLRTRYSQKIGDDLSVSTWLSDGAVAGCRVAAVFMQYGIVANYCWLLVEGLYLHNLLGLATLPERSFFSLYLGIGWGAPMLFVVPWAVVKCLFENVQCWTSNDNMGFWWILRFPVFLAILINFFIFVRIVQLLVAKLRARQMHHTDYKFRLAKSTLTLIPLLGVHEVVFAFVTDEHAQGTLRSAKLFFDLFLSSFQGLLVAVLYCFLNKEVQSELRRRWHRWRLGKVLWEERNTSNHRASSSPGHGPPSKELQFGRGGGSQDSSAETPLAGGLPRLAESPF

In turn, `CCC[C@@H](Nc1ccc(-n2cc(C(C)(C)C)cn2)nc1)c1ccc(C(=O)NCCC(=O)O)cc1` (single isomer, unassigned) [Example 137, 3-(4-(1-(6-(4-tert-butyl-1H-pyrazol-1-yl)pyridin-3-ylamino)butyl)benzamido)propanoic acid] yielded a Kb at human glucagon receptor [1] of 27 nM. For the same compound, the affinity at human glucagon receptor [2], expressed as Ki, was 20.2 nM.

The compound `Cc1cc(OC(c2ccc(C(=O)NCCC(=O)O)cc2)C2CCC2)cc(C)c1-n1cc(C(F)(F)F)cn1` (single isomer, unassigned) [Example 138, 3-(4-(cyclobutyl(3,5-dimethyl-4-(4-(trifluoromethyl)-1H-pyrazol-1-yl)phenoxy)methyl)benzamido)propanoic acid] yielded a Kb at human glucagon receptor [1] of 40 nM. At human glucagon receptor [2], affinity was put at a Ki of 5.75 nM.

`CC(C)C[C@H](Nc1ccc(C(=O)NCCC(=O)O)cn1)c1ccc(-n2cc(C(F)(F)F)cn2)nc1` (single isomer, unassigned) [Example 142, 3-(6-(3-methyl-1-(6-(4-(trifluoromethyl)-1H-pyrazol-1-yl)pyridin-3-yl)butylamino)nicotinamido)propanoic acid]: at human glucagon receptor [1], the Kb turned out to be 883 nM. This compound also registered a Ki on human glucagon receptor [2] of 636 nM.

On human glucagon receptor [1], `CC(C)C[C@H](Nc1ccc(C(=O)NCCC(=O)O)cn1)c1ccc(-n2cc(C(F)(F)F)cn2)nc1` (single isomer, unassigned) [Example 143, 3-(6-(3-methyl-1-(6-(4-(trifluoromethyl)-1H-pyrazol-1-yl)pyridin-3-yl)butylamino)nicotinamido)propanoic acid] registered a Kb of 179 nM. At human glucagon receptor [2], this compound had a Ki of 57.4 nM.

The compound `CCCC(Oc1cc(C)c(-n2cc(Cl)cn2)c(C)c1)c1ccc(C(=O)NCCC(=O)O)cc1` (single isomer, unassigned) [Example 145, 3-(4-(1-(4-(4-chloro-1H-pyrazol-1-yl)-3,5-dimethylphenoxy)butyl)benzamido)propanoic acid] yielded a Kb on human glucagon receptor [1] of 156 nM. On human glucagon receptor [2], this compound registered a Ki of 93.2 nM.

Compound `O=C(O)CCNC(=O)c1ccc([C@@H](Nc2ccc(-n3cc(C(F)(F)F)cn3)nc2)C2CCCCC2)cc1` (single isomer, unassigned) [Example 146, 3-(4-(cyclohexyl(6-(4-(trifluoromethyl)-1H-pyrazol-1-yl)pyridine-3-ylamino)methyl)benzamido)propanoic acid] yielded a Kb at human glucagon receptor [1] of 21 nM. At human glucagon receptor [2], this compound yielded a Ki of 9.05 nM.

For the compound `O=C(O)CCNC(=O)c1ccc([C@@H](Nc2ccc(-n3cc(C(F)(F)F)cn3)nc2)C2CCCCC2)cc1` (single isomer, unassigned) [Example 147, 3-(4-(cyclohexyl(6-(4-(trifluoromethyl)-1H-pyrazol-1-yl)pyridine-3-ylamino)methyl)benzamido)propanoic acid], the Kb on human glucagon receptor [1] is 343 nM. This compound also came in with a Ki at human glucagon receptor [2] of 26.7 nM.

As to `CC1(C)CC(C(Oc2cnc(-n3cc(C(F)(F)F)cn3)nc2)c2ccc(C(=O)NCCC(=O)O)cc2)C1` (single isomer, unassigned; isomer 1) [Example 155, 3-(4-((3,3-dimethylcyclobutyl)(2-(4-(trifluoromethyl)-1H-pyrazol-1-yl)pyrimidin-5-yloxy)methyl)benzamido)propanoic acid, Isomer 1], the Kb on human glucagon receptor [1] amounted to 313 nM. This compound also had a Ki on human glucagon receptor [2] of 94.9 nM.

`CC1(C)CC(C(Oc2cnc(-n3cc(C(F)(F)F)cn3)nc2)c2ccc(C(=O)NCCC(=O)O)cc2)C1` (single isomer, unassigned; isomer 1) [Example 156, 3-(4-((3,3-dimethylcyclobutyl)(2-(4-(trifluoromethyl)-1H-pyrazol-1-yl)pyrimidin-5-yloxy)methyl)benzamido)propanoic acid, Isomer 1] yielded a Kb on human glucagon receptor [1] of 246 nM. For the same compound, affinity at human glucagon receptor [2] was put at a Ki of 251 nM.

Regarding `CC1(C)CC(C(Nc2cnc(-n3cc(C(F)(F)F)cn3)nc2)c2ccc(C(=O)NCCC(=O)O)cc2)C1` (single isomer, unassigned; isomer 1) [Example 157, 3-(4-((3,3-dimethylcyclobutyl)(2-(4-(trifluoromethyl)-1H-pyrazol-1-yl)pyrimidin-5-ylamino)methyl)benzamido)propanoic acid, Isomer 1], the Kb at human glucagon receptor [1] worked out at 18.6 nM. Also, the Ki on human glucagon receptor [2] came out at 5.55 nM.

In the case of `CCCC(Nc1ccc(-n2cc(-c3ccccc3)cn2)nc1)c1ccc(C(=O)NCCC(=O)O)cc1` (single isomer, unassigned; isomer 1) [Example 160, 3-(4-(1-(6-(4-phenyl-1H-pyrazol-1-yl)pyridine-3-ylamino)butyl)benzamido)propanoic acid, Isomer 1], the Kb on human glucagon receptor [1] stood at 111 nM. The Ki at human glucagon receptor [2] worked out at 29 nM.

The compound `CCCC(Nc1ccc(-n2cc(CC)c(C)n2)nc1)c1ccc(C(=O)NCCC(=O)O)cc1` (single isomer, unassigned; isomer 1) [Example 166, 3-(4-(1-(6-(4-ethyl-3-methyl-1H-pyrazol-1-yl)pyridin-3-ylamino)butyl)benzamido)propanoic acid, Isomer 1] gave a Kb on human glucagon receptor [1] of 94.8 nM. Further, the Ki on human glucagon receptor [2] is 91.5 nM.

`Cc1cc(C(Nc2ccc(C(=O)NCCC(=O)O)cn2)C2CCCC2)cc(C)c1-n1cc(C(F)(F)F)cn1` (single isomer, unassigned; isomer 1) [Example 170, (3-(6-((cyclopentyl(3,5-dimethyl-4-(4-(trifluoromethyl)-1H-pyrazol-1-yl)phenyl)methyl)amino)nicotinamido)propanoic acid, Isomer 1]: at human glucagon receptor [1], the Kb was found to be 1300 nM. Also, on human glucagon receptor [2], the Ki stood at 224 nM.

Turning to `O=C(O)CCNC(=O)c1ccc([C@H](CCC(F)(F)F)Nc2ccc(-n3cc(C(F)(F)F)cn3)nc2)cc1` (single isomer, unassigned; isomer 1) [Example 172, N-{4-[4,4,4-trifluoro-1-({6-[4-(trifluoromethyl)-1H-pyrazol-1-yl]pyridin-3-yl}amino)butyl]benzoyl}-beta-alanine, Isomer 1], the Kb at human glucagon receptor [1] came out at 59.9 nM. This compound came in with a Ki at human glucagon receptor [2] of 8.18 nM.

Compound `CC1(C)CC([C@H](Nc2ccc(-n3cc(C4CC4)cn3)nc2)c2ccc(C(=O)NCCC(=O)O)cc2)C1` (single isomer, unassigned; isomer 1) [Example 174, N-{-4-[{[6-(4-cyclopropyl-1H-pyrazol-1-yl)pyridin-3-yl]amino}(3,3-dimethylcyclobutyl)methyl]benzoyl}-beta-alanine, Isomer 1] had a Kb at human glucagon receptor [1] of 252 nM. At human glucagon receptor [2], this compound displayed a Ki of 57 nM.

Compound `CC(C)(C)[C@H](Nc1ccc(-n2cc(C(F)(F)F)cn2)nc1)c1ccc(C(=O)NCCC(=O)O)cc1` (single isomer, unassigned; isomer 1) [Example 179, 3-(4-(2,2-dimethyl-1-((6-(4-(trifluoromethyl)-1H-pyrazol-1-yl)pyridin-3-yl)amino)propyl)benzamido)propanoic acid, Isomer 1] showed a Kb at human glucagon receptor [1] of 134 nM. For the same compound, the Ki on human glucagon receptor [2] amounted to 22.1 nM.

Regarding `CC(C)(C)[C@H](Nc1ccc(-n2cnc(C(F)(F)F)c2)nc1)c1ccc(C(=O)NCCC(=O)O)cc1` (single isomer, unassigned; isomer 1) [Example 182, 3-(4-(2,2-dimethyl-1-((6-(4-(trifluoromethyl)-1H-imidazol-1-yl)pyridin-3-yl)amino)propyl)benzamido)propanoic acid, Isomer 1], the Kb at human glucagon receptor [1] was found to be 424 nM. Also, the inhibition constant (Ki) at human glucagon receptor [2] was 156 nM.

On human glucagon receptor [1], `Cc1nn(-c2ccc(N[C@H](c3ccc(C(=O)NCCC(=O)O)cc3)C3CCCC3)cn2)cc1Cl` (single isomer, unassigned; isomer 1) [Example 191, 3-(4-((6-(4-chloro-3-methyl-1H-pyrazol-1-yl)pyridin-3-ylamino)(cyclopentyl)methyl)benzamido)propanoic acid, Isomer 1] had a Kb of 11.7 nM. For the same compound, the affinity on human glucagon receptor [2], expressed as Ki, was 29.3 nM.

On human glucagon receptor [1], `CC1(C)CC(C(Nc2cnc(-n3cc(C(F)(F)F)cn3)nc2)c2ccc(C(=O)NCCC(=O)O)cc2)C1` (single isomer, unassigned; isomer 2) [Example 158, 3-(4-((3,3-dimethylcyclobutyl)(2-(4-(trifluoromethyl)-1H-pyrazol-1-yl)pyrimidin-5-ylamino)methyl)benzamido)propanoic acid, Isomer 2] came in with a Kb of 155 nM. For the same compound, the affinity on human glucagon receptor [2] corresponds to a Ki of 41 nM.

Compound `CCCC(Nc1ccc(-n2cc(-c3ccccc3)cn2)nc1)c1ccc(C(=O)NCCC(=O)O)cc1` (single isomer, unassigned; isomer 2) [Example 161, 3-(4-(1-(6-(4-phenyl-1H-pyrazol-1-yl)pyridine-3-ylamino)butyl)benzamido)propanoic acid, Isomer 2] yielded a Kb on human glucagon receptor [1] of 9.49 nM. The same compound displayed a Ki on human glucagon receptor [2] of 25.7 nM.

As to `CCCC(Nc1ccc(-n2cc(CC)c(C)n2)nc1)c1ccc(C(=O)NCCC(=O)O)cc1` (single isomer, unassigned; isomer 2) [Example 167, 3-(4-(1-(6-(4-ethyl-3-methyl-1H-pyrazol-1-yl)pyridin-3-ylamino)butyl)benzamido)propanoic acid, Isomer 2], the Kb on human glucagon receptor [1] amounted to 1140 nM. Moreover, the Ki at human glucagon receptor [2] was found to be 414 nM.

Compound `Cc1cc(C(Nc2ccc(C(=O)NCCC(=O)O)cn2)C2CCCC2)cc(C)c1-n1cc(C(F)(F)F)cn1` (single isomer, unassigned; isomer 2) [Example 171, 3-(6-((cyclooentyl(3,5-dimethyl-4-(4-(trifluoromethyl)-1H-pyrazol-1-yl)phenyl)methyl)amino)nicotinamido)propanoic acid, Isomer 2] returned a Kb at human glucagon receptor [1] of 150 nM. This compound also came in with a Ki on human glucagon receptor [2] of 28 nM.

For the origin of these results see patent publication US8507533B2, “Glucagon receptor modulators” (Pfizer Inc., priority 2011, dated 2013).
